Experimental data from ChEMBL document CHEMBL1129662, “Investigation of (Oxodioxolenyl)methyl carbamates as nonchiral bioreversible prodrug moieties for chiral amines” (J Med Chem, 1996).

How the values were obtained:
[1] = First order rate data for the hydrolysis of compound in 0.05 M phosphate buffer pH 7.4 hydrolysis medium; Half-life in minutes; assay type: ADME
[2] = First order rate data for the hydrolysis of compound in rat plasma hydrolysis medium; Half-life in minutes; assay type: ADME
[3] = First order rate data for the hydrolysis of compound in 0.1 M hydrochloric acid pH 1 hydrolysis medium (adinotes no detectable hydrolysis after 48 h); Half-life in minutes; assay type: ADME
[4] = First order rate data for the hydrolysis of compound in 0.1 M hydrochloric acid pH 1 hydrolysis medium; Half-life in minutes; assay type: ADME
[5] = First order rate data for the hydrolysis of compound in dog plasma hydrolysis medium; Half-life in minutes; assay type: ADME, Canis lupus familiaris

SMILES | half-life [1] [h] | half-life [2] [h] | half-life [3] [h] | half-life [4] [h] | half-life [5] [h]
COc1ccc(CCNC(=O)OCc2oc(=O)oc2C)cc1OC | 4.3 | 0.183 | > 50 |  | 
COc1ccc(-c2oc(=O)oc2COC(=O)NCCc2ccc(OC)c(OC)c2)cc1 | 3.45 | 0.0333 |  | 53 | 0.233
COc1ccc(CCNC(=O)OCc2oc(=O)oc2-c2ccccc2)cc1OC | 2.23 | 0.0333 |  | 59.2 | 0.183
